This passage reports Kd results from article PMC6661780, “Design, synthesis, antiviral bioactivities and interaction mechanisms of penta-1,4-diene-3-one oxime ether derivatives containing a quinazolin-4(3H)-one scaffold” (BMC Chemistry, 2019).

The target in this experiment is T1, TMV CP (TMV coat protein) (Tobacco mosaic virus (vulgare), UniProt P69687).
T1 construct: NT-647 dye labelled for MST
Kind of experiment: microscale thermophoresis (Monolith NT.[…], NT-647-labelled protein). In kind it is binding. In general terms: MST reads how a fluorescent partner responds to local heating, with and without ligand.

Structures are written as SMILES.

T1 sequence (P69687 2-159 limits assumed): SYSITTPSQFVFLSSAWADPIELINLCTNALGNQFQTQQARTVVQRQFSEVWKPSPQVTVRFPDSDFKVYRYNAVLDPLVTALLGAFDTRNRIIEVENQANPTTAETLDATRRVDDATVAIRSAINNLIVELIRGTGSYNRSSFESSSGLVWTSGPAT

As to `O=c1c2ccccc2ncn1CO/N=C(\C=C\c1ccccn1)/C=C/c1ccccc1OCc1ccc(Cl)cc1Cl` [8k], the Kd (usually the concentration at which binding is half-saturated) was 970 ± 690 nM.
